In patent US9290453B2 (Merck Sharp & Dohme Corp., priority 2010, dated 2016):

target: T1, hCRTH2 (Homo sapiens, UniProt Q9Y5Y4); assay: Radioligand Binding Assay B (scintillation proximity assay, [3H]-PGD2, HEK-hCRTH2 membranes); details: Radioligand Binding Assay B (SPA), values in text
T1 construct: expressed in transfected cells; host or cells: HEK (human embryonic kidney) cells expressing hCRTH2
T1 sequence (Q9Y5Y4 1-395): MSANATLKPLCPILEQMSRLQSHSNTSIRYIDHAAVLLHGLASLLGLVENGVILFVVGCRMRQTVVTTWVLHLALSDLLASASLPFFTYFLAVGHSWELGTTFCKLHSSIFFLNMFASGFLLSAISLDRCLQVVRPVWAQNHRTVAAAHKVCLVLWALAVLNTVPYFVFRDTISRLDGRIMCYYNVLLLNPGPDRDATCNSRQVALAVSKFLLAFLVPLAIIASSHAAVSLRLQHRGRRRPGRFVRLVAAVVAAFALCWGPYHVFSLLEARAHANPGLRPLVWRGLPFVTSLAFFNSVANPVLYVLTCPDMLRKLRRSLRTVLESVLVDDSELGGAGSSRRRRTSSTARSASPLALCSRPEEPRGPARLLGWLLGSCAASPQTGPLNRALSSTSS
Method: Radioligand binding also was performed using scintillation proximity assay (SPA) technology in a similar way as described above in Radioligand Binding Assay A with minor modification. Assays were done at room temperature in 10 mM HEPES pH 7.4, 1 mM EDTA containing 2 mM MnCl2 and 16 nM [^3H]-PGD2 (PerkinElmer, Waltham, Mass.) (164 Ci mmol^−1), in a final volume of 0.05 mL. Competing ligands were diluted in dimethylsulfoxide (Me2SO) and added using very low volumes (50 nL). The reaction was initiated by the addition of a mixture of 3.52 μg of membrane protein prepared from a human embryonic kidney (HEK)-hCRTH2 cell line adhered to 140 ug of wheatgerm agglutinin SPA beads (PerkinElmer). Total and non-specific binding were determined in the absence and the presence of 10 μM of a CRTH2 antagonist, respectively. The reaction was routinely conducted for 60 min at room temperature followed by centrifugation for 5 minutes at 1000 RPM. The radioactivity was measured with a TopCountNXT (PerkinElmer). Results determined using the SPA-based assay were similar to those from the filtration binding assay.

Ki [nM] | SMILES
22.3 | O=C(O)CCCCc1cc2cc(C(=O)N[C@H]3CCOc4ccccc43)ccc2nc1-c1ccccc1 [Compound 1AL, (S)-5-(6-(chroman-4-ylcarbamoyl)-2-phenylquinolin-3-yl)pentanoic acid]
14 | O=C(O)CCCCc1cc2cc(C(=O)N3CCN(c4c(Cl)cncc4Cl)CC3)ccc2nc1-c1ccccc1 [Compound 1AY, 5-(6-(4-(3,5-dichloropyridin-4-yl)piperazine-1-carbonyl)-2-phenylquinolin-3-yl)pentanoic acid]
27.3 | CC1(C)CC(NC(=O)c2ccc3nc(-c4ccc(Cl)cc4)c(CCCCC(=O)O)cc3c2)c2ccccc2O1 (centres unmarked) [Compound 5BH, 5-(2-(4-chlorophenyl)-6-((2,2-dimethylchroman-4-yl)carbamoyl)quinolin-3-yl)pentanoic acid]
7.2 | Cc1ccccc1N1CCN(C(=O)c2ccc3nc(-c4ccc(F)cc4)c(CCCCC(=O)O)cc3c2)CC1 [Compound 5AT, 5-(2-(4-fluorophenyl)-6-(4-(o-tolyl)piperazine-1-carbonyl)quinolin-3-yl)pentanoic acid]

same assay, conditions: Table B, Radioligand Binding Assay B (SPA), rated A-D

Ki [nM] | SMILES
20.1 to 200 | O=C(O)CCCCc1cc2cc(C(=O)N3CC(c4cccc(F)c4)C3)ccc2nc1-c1ccc(F)cc1 [Compound 5AG, 5-(2-(4-fluorophenyl)-6-(3-(3-fluorophenyl)azetidine-1-carbonyl)quinolin-3-yl)pentanoic acid]
20.1 to 200 | O=C(O)CCCCc1cc2cc(C(=O)N[C@H]3CCOc4ccccc43)ccc2nc1-c1ccccc1 [Compound 1AL, (S)-5-(6-(chroman-4-ylcarbamoyl)-2-phenylquinolin-3-yl)pentanoic acid]
2.1 to 20 | CN(Cc1ccc(F)cc1)C(=O)c1ccc2nc(-c3ccc(Cl)cc3)c(CCCCC(=O)O)cc2c1 [Compound 5BG, 5-(2-(4-chlorophenyl)-6-((4-fluorobenzyl)(methyl)carbamoyl)quinolin-3-yl)pentanoic acid]
2.1 to 20 | O=C(O)CCCCc1cc2cc(C(=O)N3CCN(c4ccc(F)cc4)CC3)ccc2nc1-c1ccc(F)cc1 [Compound 5AX, 5-(2-(4-fluorophenyl)-6-(4-(4-fluorophenyl)piperazine-1-carbonyl)quinolin-3-yl)pentanoic acid]
2.1 to 20 | Cc1ccc(N2CCN(C(=O)c3ccc4nc(-c5ccc(Cl)cc5)c(CCCCC(=O)O)cc4c3)CC2)cc1 [Compound 5BT, 5-(2-(4-chlorophenyl)-6-(4-(p-tolyl)piperazine-1-carbonyl)quinolin-3-yl)pentanoic acid]
20.1 to 200 | N#Cc1cccnc1N1CCN(C(=O)c2ccc3nc(-c4ccccc4)c(CCCCC(=O)O)cc3c2)CC1 [Compound 1AX, 5-(6-(4-(3-cyanopyridin-2-yl)piperazine-1-carbonyl)-2-phenylquinolin-3-yl)pentanoic acid]
2.1 to 20 | O=C(O)CCCCc1cc2cc(C(=O)N[C@@H]3COc4ccccc43)ccc2nc1-c1ccc(Cl)cc1 [Compound 5BB, (S)-5-(2-(4-chlorophenyl)-6-((2,3-dihydrobenzofuran-3-yl)carbamoyl)quinolin-3-yl)pentanoic acid]
2.1 to 20 | O=C(O)CCCCc1cc2cc(C(=O)N3CC(c4ccccc4)C3)ccc2nc1-c1ccc(Cl)cc1 [Compound 5BK, 5-(2-(4-chlorophenyl)-6-(3-phenylazetidine-1-carbonyl)quinolin-3-yl)pentanoic acid]
2.1 to 20 | O=C(O)CCCCc1cc2cc(C(=O)N3CCN(c4ccccc4Cl)CC3)ccc2nc1-c1ccc(F)cc1 [Compound 5AS, 5-(6-(4-(2-chlorophenyl)piperazine-1-carbonyl)-2-(4-fluorophenyl)quinolin-3-yl)pentanoic acid]
2.1 to 20 | O=C(O)CCCCc1cc2cc(C(=O)N[C@@H]3CCCc4ccccc43)ccc2nc1-c1ccc(Cl)cc1 [Compound 5AZ, (R)-5-(2-(4-chlorophenyl)-6-((1,2,3,4-tetrahydronaphthalen-1-yl)carbamoyl)quinolin-3-yl)pentanoic acid]
2.1 to 20 | O=C(O)CCCCc1cc2cc(C(=O)N3CCN(c4c(Cl)cncc4Cl)CC3)ccc2nc1-c1ccccc1 [Compound 1AY, 5-(6-(4-(3,5-dichloropyridin-4-yl)piperazine-1-carbonyl)-2-phenylquinolin-3-yl)pentanoic acid]
20.1 to 200 | CC1(C)CC(NC(=O)c2ccc3nc(-c4ccccc4)c(CCCCC(=O)O)cc3c2)c2ccccc2O1 (centres unmarked) [Compound 1AP, 5-(6-((2,2-dimethylchroman-4-yl)carbamoyl)-2-phenylquinolin-3-yl)pentanoic acid]
2.1 to 20 | N#Cc1ccccc1N1CCN(C(=O)c2ccc3nc(-c4ccc(F)cc4)c(CCCCC(=O)O)cc3c2)CC1 [Compound 5Ao, 5-(6-(4-(2-cyanophenyl)piperazine-1-carbonyl)-2-(4-fluorophenyl)quinolin-3-yl)pentanoic acid]
2.1 to 20 | O=C(O)CCCCc1cc2cc(C(=O)N3CC[C@@H](c4ccc(F)cc4)C3)ccc2nc1-c1ccccc1 [Compound 1AN, (S)-5-(6-(3-(4-fluorophenyl)pyrrolidine-1-carbonyl)-2-phenylquinolin-3-yl)pentanoic acid]
2.1 to 20 | Cc1cccc(N2CCN(C(=O)c3ccc4nc(-c5ccccc5)c(CCCCC(=O)O)cc4c3)CC2)c1 [Compound 1BC, 5-(2-phenyl-6-(4-(m-tolyl)piperazine-1-carbonyl)quinolin-3-yl)pentanoic acid]
2.1 to 20 | O=C(O)CCCCc1cc2cc(C(=O)NC3CC(=O)Nc4ccccc43)ccc2nc1-c1ccc(Cl)cc1 (centres unmarked) [Compound 5BJ, 5-(2-(4-chlorophenyl)-6-((2-oxo-1,2,3,4-tetrahydroquinolin-4-yl)carbamoyl)quinolin-3-yl)pentanoic acid]

Ki [nM] | SMILES
20.1 to 200 | CC1(C)CC(NC(=O)c2ccc3nc(-c4ccc(Cl)cc4)c(CCCCC(=O)O)cc3c2)c2ccccc2O1 (centres unmarked) [Compound 5BH, 5-(2-(4-chlorophenyl)-6-((2,2-dimethylchroman-4-yl)carbamoyl)quinolin-3-yl)pentanoic acid]
20.1 to 200 | O=C(O)CCCCc1cc2cc(C(=O)N3CC[C@H](c4ccc(F)cc4)C3)ccc2nc1-c1ccccc1 [Compound 1AM, (R)-5-(6-(3-(4-fluorophenyl)pyrrolidine-1-carbonyl)-2-phenylquinolin-3-yl)pentanoic acid]
2.1 to 20 | O=C(O)CCCCc1cc2cc(C(=O)N3CCN(c4ccccc4)CC3)ccc2nc1-c1ccc(Cl)cc1 [Compound 5BD, 5-(2-(4-chlorophenyl)-6-(4-phenylpiperazine-1-carbonyl)quinolin-3-yl)pentanoic acid]
2.1 to 20 | O=C(O)CCCCc1cc2cc(C(=O)N3CC[C@@H](c4ccccc4)C3)ccc2nc1-c1ccc(F)cc1 [Compound 5AH, (S)-5-(2-(4-fluorophenyl)-6-(3-phenylpyrrolidine-1-carbonyl)quinolin-3-yl)pentanoic acid]
2.1 to 20 | Cc1ccccc1N1CCN(C(=O)c2ccc3nc(-c4ccc(F)cc4)c(CCCCC(=O)O)cc3c2)CC1 [Compound 5AT, 5-(2-(4-fluorophenyl)-6-(4-(o-tolyl)piperazine-1-carbonyl)quinolin-3-yl)pentanoic acid]
2.1 to 20 | O=C(O)CCCCc1cc2cc(C(=O)N3CCN(c4ccc(F)cc4)CC3)ccc2nc1-c1ccc(Cl)cc1 [Compound 5BU, 5-(2-(4-chlorophenyl)-6-(4-(4-fluorophenyl)piperazine-1-carbonyl)quinolin-3-yl)pentanoic acid]
2.1 to 20 | O=C(O)CCCCc1cc2cc(C(=O)NC3CC(=O)Nc4ccccc43)ccc2nc1-c1ccc(F)cc1 (centres unmarked) [Compound 5AL, 5-(2-(4-fluorophenyl)-6-((2-oxo-1,2,3,4-tetrahydroquinolin-4-yl)carbamoyl)quinolin-3-yl)pentanoic acid]
20.1 to 200 | O=C(O)CCCCc1cc2cc(C(=O)NCc3ccccc3)ccc2nc1-c1ccc(F)cc1 [Compound 5AN, 5-(6-(benzylcarbamoyl)-2-(4-fluorophenyl)quinolin-3-yl)pentanoic acid]
2.1 to 20 | O=C(O)CCCCc1cc2cc(C(=O)N3CC(c4cccc(F)c4)C3)ccc2nc1-c1ccccc1 [Compound 1AJ, 5-(6-(3-(3-fluorophenyl)azetidine-1-carbonyl)-2-phenylquinolin-3-yl)pentanoic acid]
2.1 to 20 | O=C(O)CCCCc1cc2cc(C(=O)NC3CC(=O)Nc4ccccc43)ccc2nc1-c1ccccc1 (centres unmarked) [Compound 1AS, 5-(6-((2-oxo-1,2,3,4-tetrahydroquinolin-4-yl)carbamoyl)-2-phenylquinolin-3-yl)pentanoic acid]
2.1 to 20 | Cc1ccc(N2CCN(C(=O)c3ccc4nc(-c5ccc(F)cc5)c(CCCCC(=O)O)cc4c3)CC2)cc1 [Compound 5AW, 5-(2-(4-fluorophenyl)-6-(4-(p-tolyl)piperazine-1-carbonyl)quinolin-3-yl)pentanoic acid]
20.1 to 200 | C[C@@H](NC(=O)c1ccc2nc(-c3ccccc3)c(CCCCC(=O)O)cc2c1)c1ccc(F)cc1 [Compound 1AH, (R)-5-(6-((1-(4-fluorophenyl)ethyl)carbamoyl)-2-phenylquinolin-3-yl)pentanoic acid]
20.1 to 200 | O=C(O)CCCCc1cc2cc(C(=O)N3CCN(c4ccccc4Cl)CC3)ccc2nc1-c1ccc(Cl)cc1 [Compound 5BP, 5-(2-(4-chlorophenyl)-6-(4-(2-chlorophenyl)piperazine-1-carbonyl)quinolin-3-yl)pentanoic acid]
2.1 to 20 | O=C(O)CCCCc1cc2cc(C(=O)N[C@@H]3CCOc4ccccc43)ccc2nc1-c1ccc(F)cc1 [Compound 5AD, (R)-5-(6-(chroman-4-ylcarbamoyl)-2-(4-fluorophenyl)quinolin-3-yl)pentanoic acid]
2.1 to 20 | COc1ccccc1C1CCN(C(=O)c2ccc3nc(-c4ccc(Cl)cc4)c(CCCCC(=O)O)cc3c2)CC1 [Compound 5BN, 5-(2-(4-chlorophenyl)-6-(4-(2-methoxyphenyl)piperidine-1-carbonyl)quinolin-3-yl)pentanoic acid]
